Assay results published in patent publication US5348743A, “Anti-pathogenically effective compositions comprising lytic peptides and hydrolytic enzymes” (priority 1993, dated 1994).
Read-outs that look alike come from different tables or passages of the source.

Tests used:
chitinase [1] = conditions: Burri (1989), average of five ethylene treatments; cited from earlier work
beta-1,3-glucanase [2] = format: biochemical, Phaseolus vulg. L. cv. saxa
Procedure: (§1) Seeds of Phaseolus vulg. L. cv. saxa were grown in vermiculite under a 16 hr light: 8 hr dark regime at 20° C. Twelve day old bean plants were incubated in air-tight plastic chambers with a volume of 0.2 m^3. Control plants were incubated in identical chambers in ethylene-free air. After 48 hours, the primary leaves were harvested and frozen at -20° C.
(§2) 0.6597 kg frozen leaf tissue was homogenized in 0.1M sodium citrate buffer at pH 5.0 (2 ml×g^-1 fresh weight) with a Turmix homogenizer at top speed. The homogenate was centrifuged (25 Min., 11000 g) and 100 ml of the supernatant were used as a crude enzyme preparation. The proteins in the remaining crude extract were precipitated by adding ammonium sulfate to 95% saturation. After centrifugation (30 min., 11000 g) the sediment was redissolved in 100 mM Tris/HCl pH 8.0 and dialyzed against 5 mM Tris/HCl pH 8.0.
Beta-1,3-glucanase activity was measured as described by Dygert et al., Analyt. Biochem., 13:367-374 (1965).

beta-1,3-glucanase [3] = conditions: Burri (1989), average of five ethylene treatments; cited from earlier work
chitinase [4] = format: biochemical, Phaseolus vulg. L. cv. saxa
Procedure: as §1, §2
Chitinase activity was measured as described by Molano et al. (1977).

S. nodorum = test: Inhibitory effect of lytic peptides and hydrolytic enzymes against S. nodorum (microtiter plates, liquid pea medium, absorbance at 595 nm); format: cell-based, Septoria nodorum
Procedure: Microtiter plates were selected to investigate the inhibitory effect of lytic peptides and hydrolytic enzymes against S. nodorum. Test substances were added to 90 ul liquid pea medium which had been previously inoculated with 2.0×10^4 spores/ml medium of the test pathogen to give a final volume of 100 ul. The blank value of the test substances were determined by adding them to uninoculated liquid pea medium. The plates were evaluated after incubation in a wet chamber at 23° C. on a shaker in the dark for 48 hours.
a. Hydrolytic enzymes were purified from ethylene-treated bean leaves by the procedure described in Example 1.
b. Lytic peptides: The following antimicrobial peptides were tested at 20 ppm, 60 ppm and 200 ppm concentrations:
d. Combinations of test substances: Table 3 illustrates the composition of test solutions which were tested in duplicate/triplicate samples.
e. Evaluation: The growth of the pathogen was recorded by measuring the absorbance of the medium at 595 nm. The average of duplicate/triplicate samples was calculated and the corresponding enzyme blank was subtracted to give the net absorption of the growing mycelium. The inhibitory effect of the test substances used was determined by calculating the growth of the pathogen as a percentage of water control.

Compound: C=C [ethylene]
- absolute chitinase activity (chitinase [1]): 88.86±6.65 nkatal/ml extract
- Specific beta-1,3-glucanase activity (beta-1,3-glucanase [2]): 28.72
- absolute beta-1,3-glucanase activity (beta-1,3-glucanase [2]): 34.21
- induction of beta-1,3-glucanase in bean leaves (beta-1,3-glucanase [2]): strong induction
- absolute beta-1,3-glucanase activity (beta-1,3-glucanase [3]): 76.00±6.77 nkatal/ml extract
- Specific chitinase activity (chitinase [4]): 45.95
- absolute chitinase activity (chitinase [4]): 54.71
- induction of chitinase in bean leaves (chitinase [4]): strong induction

Compound: GIGKFLHSAK KFGKAFVGI MNS [SYNTHETIC PEPTIDE NO. 3]
- FUNGAL GROWTH IN PERCENTAGE OF CONTROL (S. nodorum; test solution 5: lytic peptide 20 ppm alone, 48 hours, 23° C.): 80.35 percentage of control
- FUNGAL GROWTH IN PERCENTAGE OF CONTROL (S. nodorum; test solution 6: lytic peptide 60 ppm alone, 48 hours, 23° C.): 73.51 percentage of control
- FUNGAL GROWTH IN PERCENTAGE OF CONTROL (S. nodorum; test solution 7: lytic peptide 200 ppm alone, 48 hours, 23° C.): 65.96 percentage of control
- FUNGAL GROWTH IN PERCENTAGE OF CONTROL (S. nodorum; test solution 12: lytic peptide 20 ppm + chitinase 1/10 c): 68.42 percentage of control
- FUNGAL GROWTH IN PERCENTAGE OF CONTROL (S. nodorum; test solution 13: lytic peptide 60 ppm + chitinase 1/10 c): 63.51 percentage of control
- FUNGAL GROWTH IN PERCENTAGE OF CONTROL (S. nodorum; test solution 14: lytic peptide 200 ppm + chitinase 1/10 c): 61.75 percentage of control
- FUNGAL GROWTH IN PERCENTAGE OF CONTROL (S. nodorum; test solution 15: lytic peptide 20 ppm + chitinase 1/100 c): 77.89 percentage of control
- FUNGAL GROWTH IN PERCENTAGE OF CONTROL (S. nodorum; test solution 16: lytic peptide 60 ppm + chitinase 1/100 c): 71.58 percentage of control
- FUNGAL GROWTH IN PERCENTAGE OF CONTROL (S. nodorum; test solution 17: lytic peptide 200 ppm + chitinase 1/100 c): 64.21 percentage of control
- FUNGAL GROWTH IN PERCENTAGE OF CONTROL (S. nodorum; test solution 18: lytic peptide 20 ppm + beta-1,3-glucanase 1/10 c): 46.67 percentage of control
- FUNGAL GROWTH IN PERCENTAGE OF CONTROL (S. nodorum; test solution 19: lytic peptide 60 ppm + beta-1,3-glucanase 1/10 c): 30.88 percentage of control
- FUNGAL GROWTH IN PERCENTAGE OF CONTROL (S. nodorum; test solution 20: lytic peptide 200 ppm + beta-1,3-glucanase 1/10 c): 27.89 percentage of control
- FUNGAL GROWTH IN PERCENTAGE OF CONTROL (S. nodorum; test solution 21: lytic peptide 20 ppm + beta-1,3-glucanase 1/100 c): 65.26 percentage of control
- FUNGAL GROWTH IN PERCENTAGE OF CONTROL (S. nodorum; test solution 22: lytic peptide 60 ppm + beta-1,3-glucanase 1/100 c): 63.51 percentage of control
- FUNGAL GROWTH IN PERCENTAGE OF CONTROL (S. nodorum; test solution 23: lytic peptide 200 ppm + beta-1,3-glucanase 1/100 c): 53.68 percentage of control
- FUNGAL GROWTH IN PERCENTAGE OF CONTROL (S. nodorum; test solution 24: lytic peptide 20 ppm + chitinase 1/10 c + beta-1,3-glucanase 1/10 c): 9.47 percentage of control
- FUNGAL GROWTH IN PERCENTAGE OF CONTROL (S. nodorum; test solution 25: lytic peptide 60 ppm + chitinase 1/10 c + beta-1,3-glucanase 1/10 c): 8.42 percentage of control
- FUNGAL GROWTH IN PERCENTAGE OF CONTROL (S. nodorum; test solution 26: lytic peptide 200 ppm + chitinase 1/10 c + beta-1,3-glucanase 1/10 c): 3.86 percentage of control
- FUNGAL GROWTH IN PERCENTAGE OF CONTROL (S. nodorum; test solution 27: lytic peptide 20 ppm + chitinase 1/100 c + beta-1,3-glucanase 1/100 c): 40.7 percentage of control
- FUNGAL GROWTH IN PERCENTAGE OF CONTROL (S. nodorum; test solution 28: lytic peptide 60 ppm + chitinase 1/100 c + beta-1,3-glucanase 1/100 c): 36.49 percentage of control
- FUNGAL GROWTH IN PERCENTAGE OF CONTROL (S. nodorum; test solution 29: lytic peptide 200 ppm + chitinase 1/100 c + beta-1,3-glucanase 1/100 c): 31.23 percentage of control
